Results as given in ChEMBL document CHEMBL3244171, “[1-(beta-mercapto-beta,beta-cyclopentamethylenepropionic acid),4-valine,-8-D-arginine]vasopressin, a potent and selective inhibitor of the vasopressor response to arginine-vasopressin” (J Med Chem, 1978).
Where a SMILES comes first, the peptide text is derived from it.

Columns and labels:
[1] = Antioxytocic activity in rat uterus assessed as antagonist activity on oxytocin-induced effect; assay type: functional, tissue-based
Rattus norvegicus = experiment: Antidiuretic activity in iv dosed rat assessed as agonist activity on arginine-vasopressin-induced effect; assay type: functional, Urine

SMILES	pA2 [1]	Activity (Rattus norvegicus)
CC(C)[C@@H]1NC(=O)[C@H](Cc2ccccc2)NC(=O)[C@H](Cc2ccc(O)cc2)NC(=O)CC2(CCCCC2)SSC[C@@H](C(=O)N2CCC[C@H]2C(=O)N[C@H](CCCN=C(N)N)C(=O)NCC(N)=O)NC(=O)[C@H](CC(N)=O)NC1=O (HELM PEPTIDE1{Y.F.V.N.C.P.[dR].G.[am]}|CHEM1{[O=C(CC1(S[*:2])CCCCC1)[*:1]]}$PEPTIDE1,CHEM1,1:R1-1:R1|PEPTIDE1,CHEM1,5:R3-1:R2$$$V2.0)	6.62	0.1 U/ml
CC(C)[C@@H]1NC(=O)[C@H](Cc2ccccc2)NC(=O)[C@H](Cc2ccc(O)cc2)NC(=O)CC(C)(C)SSC[C@@H](C(=O)N2CCC[C@H]2C(=O)N[C@H](CCCNC(=N)N)C(=O)NCC(N)=O)NC(=O)[C@H](CC(N)=O)NC1=O (HELM PEPTIDE1{Y.F.V.N.C.P.[dR].G.[am]}|CHEM1{[CC(C)(CC(=O)[*:1])S[*:2]]}$PEPTIDE1,CHEM1,1:R1-1:R1|PEPTIDE1,CHEM1,5:R3-1:R2$$$V2.0)	7.23	
